For one data set, the system named is Chick limb bud cells. As to the kind of experiment: Limb bud cell high density culture, cartilage matrix by Alcian blue. It counts as cell-based. Particulars: RA 1 μM or AGN194310 100 nM for 6 days. As for the experimental part: The limb bud cells were inoculated at a high density and treated with retinoids. Cartilage matrix accumulation was visualized by Alcian blue staining. […] Similar testing was described in Hoffman et al., J. Cell. Biol. 174:101-113, 2006. Chick limb bud cells were isolated from […], seeded at the density of 4×10^5 cells in 10 μL and maintained in 1% FBS containing high glucose DMEM for 3 days. Cultures then were treated with 0.1% EtOH (vehicle), retinoic acid (RA) 1 μM or AGN194310 100 nM for 6 days, fixed, and stained with Alcian Blue, pH 1.0.

Data set [1] can be described thus: Nanoparticle characterisation (size, drug loading). Conditions: in PLA-based NP.
Procedure: The drug loading of NP was determined spectrophotometrically against suitable calibration curves following two-step drug extraction in sec-butanol. Particle size measurements were performed by dynamic light scattering using a 90 Plus Particle Size Analyzer. An external sink method was applied for measuring drug release kinetics under sink conditions as follows: NP were diluted in PBS/2% bovine serum albumin and incubated with a water-immiscible acceptor medium (1-octanol and n-heptane, 1:1 v/v), and the released drug assayed spectrophotometrically in the acceptor medium samples at predetermined time-points.
For a further data set, the target named is T1, RARγ (Homo sapiens, UniProt P13631).
T1 sequence (P13631 1-454): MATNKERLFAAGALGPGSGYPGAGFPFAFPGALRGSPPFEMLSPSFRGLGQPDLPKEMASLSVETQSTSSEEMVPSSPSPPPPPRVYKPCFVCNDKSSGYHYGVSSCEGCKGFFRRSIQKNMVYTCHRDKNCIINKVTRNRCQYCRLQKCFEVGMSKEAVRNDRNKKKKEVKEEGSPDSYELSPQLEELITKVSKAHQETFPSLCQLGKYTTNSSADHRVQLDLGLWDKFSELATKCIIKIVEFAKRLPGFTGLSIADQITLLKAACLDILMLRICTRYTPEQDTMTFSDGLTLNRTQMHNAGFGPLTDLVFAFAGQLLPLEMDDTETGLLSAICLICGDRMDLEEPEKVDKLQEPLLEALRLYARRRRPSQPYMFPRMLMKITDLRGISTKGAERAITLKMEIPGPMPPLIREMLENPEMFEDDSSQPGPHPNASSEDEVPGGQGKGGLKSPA
As to the kind of experiment: Potency (ED50/EC50) of RARγ agonists.

The subject of data set [2] is heterotopic ossification (HO). As to the kind of experiment: Heterotopic ossification in FOP model mice, oral palovarotene. It is filed as in vivo, mouse. Particulars: oral administration. The source says: As discussed above, control and adjustment of specific long bone growth dysregulation requires achieving a highly localized and sustained therapeutic effect. Today, surgical resection combined with systemically administered anti-inflammatory drugs is the primary treatment modality for acquired HO. Treatment options for FOP are further limited. Because the surgical procedure itself can induce additional HO formation, systemic drug therapy aimed at reducing HO progression and related symptoms is the sole choice. […] However, despite the significant reduction in HO with this treatment regimen, systemic administration of the RARγ agonist fails to completely prevent the disease. Enhancing efficacy by increasing the systemic drug dosage may not be possible without causing strong and even toxic off-target effects. Thus, the inventive methods of treatment here increase the activity at the target site without inducing unwanted systemic effects using biodegradable nanoparticle (NP) formulations impregnated with a potent RARγ agonist capable of targeting specific areas of bone.
Acvr1cR206H/+; R26-rtTA; tetO-cre mice, treated with doxycycline to induce global expression of Acvr1cR206H/+, were subjected to hindlimb muscle injury with cardiotoxin and examined by μCT imaging 14 days after treatment with palovarotene (right) or vehicle (left). […]

Data set [3] has as its system heterotopic ossification (HO) in FOP patients. Particulars: systemic palovarotene; top-line results of ongoing Phase II trial; cited from earlier work.
Data set [4] is described as follows: Hydrophobicity of acetaminophen-capped prodrug derivative versus parent. It counts as physicochemical. Particulars: acetaminophen-capped derivative vs parent retinoid. From the text:
In order to produce an in situ activatable, reversibly hydrophobized prodrug derivatives of a RARγ agonist, a pro-drug can be delivered in a nanoparticle formulation. […] However, the ionizable carboxylic group promotes the partitioning of the compound from the particle to the surrounding aqueous medium. […] The compound would be activatable upon release can increase the stability of the particle-cargo association and help achieve a more lasting and highly localized therapeutic effect. Such constructs are in essence mutual prodrugs or co-drugs, as they regenerate in one step the retinoid compound and acetaminophen, a biologically active “helper” agent, which can play an important supporting role in therapy.

The structures appear in SMILES notation.

For `CCc1ccc(C2=CC(C)(C)Sc3ccc(C#Cc4ccc(C(=O)O)cc4)cc32)cc1` [AGN194310], the “cartilage matrix production / cartilage forming region (Alcian blue)” value with Chick limb bud cells is given as “enhanced”.

For `CC(=O)Nc1ccc(OC(=O)c2ccc3cc(C4(c5ccc6c(c5)C(C)(C)CCC6(C)C)SCCS4)ccc3c2)cc1` [MM 11253 prodrug], in data set [1], the average particle size turned out to be 565 nm, the drug loading is 1 mg/mL, the entrapment yield is listed as 67% and the polydispersity index is < 0.1.

As for `CC1(C)CCC(C)(C)c2cc(Cn3cccn3)c(/C=C/c3ccc(C(=O)O)cc3)cc21` [palovarotene], the “potency (EC50) compared with NRX204647” value on RARγ is “inferior to that of NRX204647”. The “HO in FOP model mice” value in data set [2] is “effectively reduces HO”. Further, in data set [3], the “reduction of HO in patients” value is reported as “up to 70%”. Besides, the “more hydrophobic derivative if modified with acetaminophen” value in data set [4] turned out to be 15 fold.

Source of the values: patent publication US11833256B2, “Selective RARγ ligand-loaded nanoparticles for manipulation of targeted bone growth” (University Of Maryland, Baltimore, priority 2017, dated 2023).
